Patent US12263248B2, “Compounds and compositions for intracellular delivery of therapeutic agents” (ModernaTX, Inc., priority 2018, dated 2025)

What was measured:
[1] = system: IL-6, IP-10; experiment: Cytokine induction in mice upon intravenous administration; format: in vivo; design: Cytokine induction IL-6 / Cytokine induction IP-10: unit not given here; conditions: intravenous, 0.5 mpk, 6 hours
Procedure, shortened: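 IL-6 and IP-10 concentrations determined 6 hours after a single intravenous 0.5 mpk dose of lipid nanoparticle formulation in mice, with MC3 and PBS as comparators.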

[2] = system: luciferase (Luc) mRNA; experiment: Luc expression in liver, lung, spleen and femur 6 hours after intravenous administration; format: in vivo; conditions: mice, intravenous, 0.5 mpk
Procedure, shortened: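 LNP-formulated mRNA given IV to mice (n=3) at 0.5 mpk; at 6 h, bioluminescence imaged ex vivo 15 min after IP D-luciferin (15 mg/mL, 200 μL), organs imaged within 25 min. Values are total flux by region of interest.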

[3] = Particle size and polydispersity index of nanoparticle compositions (Zetasizer Nano ZS); format: physicochemical; conditions: for Size (nm): lipid:DSPC:cholesterol:PEG-DMG 50:10:38.5:1.5 mol %; for PDI (Polydispersity index): lipid nanoparticle, ±SD within one assay run (Table 37)
Procedure, shortened: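 Measured in 1×PBS by Zetasizer Nano ZS.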

[4] = system: luciferase (Luc) mRNA; experiment: Luc expression (total flux) after intramuscular administration; format: in vivo, mice; conditions: 6 hours after intramuscular administration, Luc mRNA and H10 mRNA
Procedure, shortened: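 Total-flux luciferase signal in mice after one intramuscular injection. Nanoparticle formulations contained modified Luc mRNA, either alone or co-dosed with H10 mRNA (e.g., 0.0005 or 0.005 mpk of each), giving 0.001 or 0.01 mpk.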

[5] = system: luciferase (Luc) mRNA; experiment: Luc expression, whole body bioluminescence after intravenous administration to mice; format: in vivo; conditions: for Fold increase in total body Luc Flux relative to MC3 at 6 h: Table 3A, i.v. administration; for Total Flux 3 hours / Total Flux 6 hours / Total Flux 24 hours: i.v., 0.5 mg/kg, Luc mRNA
Procedure, shortened: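 Bioluminescence, read as region-of-interest total flux at 3, 6 and 24 h, followed a single 0.5 mg/kg intravenous dose of Luc mRNA-loaded nanoparticles in mice (n=6). Luciferin substrate (200 μL, 15 mg/mL in PBS) was injected intraperitoneally into CD-1 mice 15 minutes ahead of each imaging point.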

SMILES	Cytokine induction IL-6 [1]	Cytokine induction IP-10 [1]	Total Flux Femur [2]	Total Flux Liver [2]	Total Flux Lung [2]	Total Flux Spleen [2]	PDI ([3]; Table 1A)	Size (nm) ([3]; Table 1A)	Total flux, 0.001 mpk Dose ([4]; 0.001 mpk) [p/s]	Total flux, 0.01 mpk Dose ([4]; 0.01 mpk) [p/s]	Fold increase in total body Luc Flux relative to MC3 at 6 h [5]	Total Flux 3 hours ([5]; mice)	Total Flux 6 hours ([5]; mice)	Total Flux 24 hours ([5]; mice)	PDI (Polydispersity index) [3]	PDI ([3]; lipid:DSPC:Chol:PEG-DMG (50:10:38.5:1.5), hEPO mRNA)	luciferase activity relative to MC3 LNP control ([5]; mice, intravenous, 0.5 mg/kg (mRNA dose))	Average total flux (6 h, ffluc) ([5]; mice, intravenous, 6 h)	Fold increase in average total flux relative to MC3 ([5]; mice, intravenous, 6 h)
CCCCCCCCCCCCCCN(CCO)CCCCCCCC(=O)OC(CCCCCCCC)CCCCCCCC [Compound 2, Heptadecan-9-yl 8-((2-hydroxyethyl)(tetradecyl)amino)octanoate]	70.95	468.86	3.86E+06	4.87E+09	2.52E+07	5.77E+07	0.14	83.9	3.55E+06	6.16E+07	1.31	1.93E+10	4.31E+10	2.43E+09	–	–	–	–	–
CCCCC/C=C\C/C=C\CCCCCCCCN(CCO)CCCCCCCC(=O)OC(CCCCCCCC)CCCCCCCC [Compound 6, Heptadecan-9-yl 8-((2-hydroxyethyl)((9Z,12Z)-octadeca-9,12-dien-1-yl)amino)octanoate]	136.18	316.01	2.15E+06	1.09E+09	4.30E+06	3.03E+07	0.066	73.1	–	–	1.15	5.38E+09	7.60E+09	7.69E+08	0.07 ± 0.05	0.082	Equivalent expression to MC3 LNPs	7.60 × 10^9	1.15
CCCCC/C=C\C/C=C\CCCCCCCCN(CCO)CCCCCCCC(=O)OCCCCCCCCC [Compound 136, Nonyl 8-((2-hydroxyethyl)((9Z,12Z)-octadeca-9,12-dien-1-yl)amino)octanoate]	28.69	887.91	6.60E+05	1.34E+08	8.91E+05	2.77E+07	0.5	140.4	–	–	–	7.21E+08	7.33E+08	3.39E+07	0.11 ± 0.05	–	–	–	–
